Results as given in article PMC6832696 (Viruses, 2019).
Like-named read-outs stand apart in the source and are kept apart here.

Assays:
[1] = Toxicity in TZM-bl cells, Cell Tox Green (CTxG) assay (CC50); details: human, mock-infected TZM-bl cells
HIV-1 [2] = details: HIV-1, TZM-bl cells, 24 h
HIV-1 [3] = assay: microbe, parasite or virus in culture; details: Human immunodeficiency virus 1, TZM-bl, 24 h, read-out: EC50-2 (reporter protein expression)
HSV-2 [4] = assay: microbe, parasite or virus in culture; details: Human alphaherpesvirus 2, RPE, 72 h, read-out: EC50-1 (CTG assay)
HSV-2 [5] = assay: HSV-2 production in RPE cells, plaque assay on A549-Npro cells; assay type: cell-based, herpes simplex virus type 2; details: 0.12 μM obatoclax, 0.04 μM emetine, 0.37 μM niclosamide, 0.37 μM ganciclovir; titrated on A549-Npro cells
HSV-2 [6] = tested on: HSV-2
in vitro = details: human
RVFV = assay: microbe, parasite or virus in culture; assay type: cell-based; details: Rift Valley fever virus, RPE, 24 h, read-out: EC50-1 (CTG assay)
HMPV-GFP [7] = assay: microbe, parasite or virus in culture; details: human metapneumovirus, RPE, 96 h, read-out: EC50-2 (reporter protein expression)
RVFV-RFP [8] = details: RPE cells, fluorescent microscopy and CTG assay
[9] = Drug combination experiment: viability of mock-infected RPE cells (CTG); details: human
FLUAV-GFP [10] = assay: microbe, parasite or virus in culture; details: Influenza A virus, RPE, read-out: Viability of FLUAV-GFP-infected cells (%)
RVFV-RFP [11] = assay: microbe, parasite or virus in culture; details: Rift Valley fever virus, RPE, 24 h, read-out: EC50-2 (reporter protein expression)
HMPV-GFP [12] = tested on: HMPV-GFP
FLUAV-GFP [13] = assay: microbe, parasite or virus in culture; details: Influenza A virus, RPE, 24 h, read-out: EC50-2 (reporter protein expression)
FLUAV = assay: microbe, parasite or virus in culture; assay type: cell-based; details: Influenza A virus, RPE, 24 h, read-out: EC50-1 (CTG assay)
EV1 [14] = assay: EV1 production in RPE cells, plaque assay on A549-Npro cells; assay type: cell-based, echovirus 1; details: obatoclax 0.37 μM, emetine 0.12 μM, homoharringtonine 0.12 μM; titrated on A549-Npro cells
FLUAV-GFP [15] = tested on: FLUAV-GFP
EV1 [16] = assay: microbe, parasite or virus in culture; details: Enterovirus B, RPE, 48 h, read-out: EC50-1 (CTG assay)
EV1 [17] = tested on: EV1

## Cc1ccc(C(=O)Nc2ccc(S(=O)(=O)O)c3cc(S(=O)(=O)O)cc(S(=O)(=O)O)c23)cc1NC(=O)c1cccc(NC(=O)Nc2cccc(C(=O)Nc3cc(C(=O)Nc4ccc(S(=O)(=O)O)c5cc(S(=O)(=O)O)cc(S(=O)(=O)O)c45)ccc3C)c2)c1 [Suramin]
[1]
  CC50 at 24 h: > 30000 nM
HIV-1 [2]
  SI (CC50/EC50): >375
HIV-1 [2]; listed as suramin
  SI (CC50/EC50): > 375
HIV-1 [3]
  EC50: 80 ± 30 nM

## Nc1nc(O)c2ncn(COC(CO)CO)c2n1 [Ganciclovir]
HSV-2 [4]
  EC50: 40 ± 10 nM
HSV-2 [5]
  HSV-2 production in RPE cells (plaque assay): lowered the production of HSV-2
HSV-2 [6]
  Initial screening: rescue of HSV-2-infected cells: rescued cells from virus-mediated death
In vitro
  CC50: > 30000 nM

## CC[C@H]1CN2CCc3cc(OC)c(OC)cc3[C@@H]2C[C@@H]1C[C@H]1NCCc2cc(OC)c(OC)cc21 [Emetine]
RVFV
  EC50: 100 ± 20 nM
HMPV-GFP [7]
  EC50: 140 ± 50 nM
HSV-2 [4]
  EC50: 30 ± 10 nM
RVFV-RFP [8]
  RVFV-mediated RFP expression: inhibited RVFV-mediated RFP expression at non-cytotoxic concentrations
[9]
  viability at 24 h, 0.01 μM: 72%
  viability at 24 h, 0.02 μM: 80%
  viability at 24 h, 0.05 μM: 76%
  viability at 24 h, 0.15 μM: 76%
  viability at 24 h, 0.44 μM: 80%
HSV-2 [5]
  HSV-2 production in RPE cells (plaque assay): lowered the production of HSV-2
FLUAV-GFP [10]
  viability at 0.01 µM: 50%
  viability at 0.02 µM: 51%
  viability at 0.05 µM: 66%
  viability at 0.15 µM: 68%
  viability at 0.44 µM: 76%
RVFV-RFP [11]
  EC50: 430 ± 100 nM
HMPV-GFP [12]
  Initial screening: HMPV-mediated GFP expression: lowered GFP expression without detectable cytotoxicity
  SI (CC50/EC50): 10
FLUAV-GFP [13]
  EC50: 120 ± 30 nM
FLUAV
  EC50: 130 ± 50 nM
EV1 [14]
  EV1 production in RPE cells (plaque assay): lowered the production of EV1
FLUAV-GFP [15]
  Initial screening: FLUAV-mediated GFP expression: lowered GFP expression without detectable cytotoxicity
EV1 [16]
  EC50: 120 ± 40 nM
HSV-2 [6]
  Initial screening: rescue of HSV-2-infected cells: rescued cells from virus-mediated death
  SI (CC50/EC50): 37
In vitro
  CC50: > 30000 nM
EV1 [17]
  Initial screening: rescue of EV1-infected cells: rescued cells from virus-mediated death

## O=C(Nc1ccc([N+](=O)[O-])cc1Cl)c1cc(Cl)ccc1O [Niclosamide]
HSV-2 [4]
  EC50: 430 ± 40 nM
HSV-2 [5]
  HSV-2 production in RPE cells (plaque assay): lowered the production of HSV-2
HSV-2 [6]
  Initial screening: rescue of HSV-2-infected cells: rescued cells from virus-mediated death
  SI (CC50/EC50): 3
In vitro
  CC50: 1310 ± 20 nM

## Cc1c(-c2ccc(-c3ccccc3F)cc2)nc2ccc(F)cc2c1C(=O)O [Brequinar]
[1]
  CC50 at 24 h: > 30000 nM
HIV-1 [2]
  SI (CC50/EC50): >750
HIV-1 [2]; listed as brequinar
  SI (CC50/EC50): > 750
HIV-1 [3]
  EC50: 40 ± 10 nM

## COC(=O)C[C@](O)(CCCC(C)(C)O)C(=O)O[C@@H]1C(OC)=C[C@]23CCCN2CCc2cc4c(cc2[C@H]13)OCO4 [Homoharringtonine]
EV1 [14]
  EV1 production in RPE cells (plaque assay): lowered the production of EV1
EV1 [16]
  EC50: 140 ± 30 nM
In vitro
  CC50: > 30000 nM
EV1 [17]
  Initial screening: rescue of EV1-infected cells: rescued cells from virus-mediated death

## COC1=CC(c2cc3ccccc3[nH]2)=N/C1=C\c1[nH]c(C)cc1C [Obatoclax]
RVFV
  EC50: 40 ± 10 nM
HMPV-GFP [7]
  EC50: 120 ± 20 nM
HSV-2 [4]
  EC50: 100 ± 20 nM
RVFV-RFP [8]
  RVFV-mediated RFP expression: inhibited RVFV-mediated RFP expression at non-cytotoxic concentrations
[9]
  viability at 24 h, 0.01 μM: 81%
  viability at 24 h, 0.02 μM: 77%
  viability at 24 h, 0.05 μM: 78%
  viability at 24 h, 0.15 μM: 81%
  viability at 24 h, 0.44 μM: 77%
HSV-2 [5]
  HSV-2 production in RPE cells (plaque assay): lowered the production of HSV-2
FLUAV-GFP [10]
  viability at 0.01 µM: 60%
  viability at 0.02 µM: 72%
  viability at 0.05 µM: 80%
  viability at 0.15 µM: 90%
  viability at 0.44 µM: 76%
RVFV-RFP [11]
  EC50: 320 ± 90 nM
HMPV-GFP [12]
  Initial screening: HMPV-mediated GFP expression: lowered GFP expression without detectable cytotoxicity
FLUAV-GFP [13]
  EC50: 100 ± 10 nM
FLUAV
  EC50: 40 ± 10 nM
EV1 [14]
  EV1 production in RPE cells (plaque assay): lowered the production of EV1
FLUAV-GFP [15]
  Initial screening: FLUAV-mediated GFP expression: lowered GFP expression without detectable cytotoxicity
  SI (CC50/EC50): 31
EV1 [16]
  EC50: 120 ± 10 nM
HSV-2 [6]
  Initial screening: rescue of HSV-2-infected cells: rescued cells from virus-mediated death
  SI (CC50/EC50): 12
EV1 [17]
  Initial screening: rescue of EV1-infected cells: rescued cells from virus-mediated death
  SI (CC50/EC50): 25
